From ChEMBL document CHEMBL1201862, “PubChem BioAssay data set” (2004)
The source made the active and inactive calls.

Assays:
Large T antigen = Large T antigen (Simian virus 40, UniProt P03070); assay type: functional, Betapolyomavirus macacae;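 further: Confirmatory-stage PubChem screen for compounds that inhibit SV40 T antigen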
H9c2 = assay: cells; assay type: functional, cell-based; settings: Rattus norvegicus, H9c2, Myocardium
Protein skinhead-1 = biological target: T1, Protein skinhead-1 (Caenorhabditis elegans, UniProt P34707); assay type: functional
T1 sequence (P34707 whole entry): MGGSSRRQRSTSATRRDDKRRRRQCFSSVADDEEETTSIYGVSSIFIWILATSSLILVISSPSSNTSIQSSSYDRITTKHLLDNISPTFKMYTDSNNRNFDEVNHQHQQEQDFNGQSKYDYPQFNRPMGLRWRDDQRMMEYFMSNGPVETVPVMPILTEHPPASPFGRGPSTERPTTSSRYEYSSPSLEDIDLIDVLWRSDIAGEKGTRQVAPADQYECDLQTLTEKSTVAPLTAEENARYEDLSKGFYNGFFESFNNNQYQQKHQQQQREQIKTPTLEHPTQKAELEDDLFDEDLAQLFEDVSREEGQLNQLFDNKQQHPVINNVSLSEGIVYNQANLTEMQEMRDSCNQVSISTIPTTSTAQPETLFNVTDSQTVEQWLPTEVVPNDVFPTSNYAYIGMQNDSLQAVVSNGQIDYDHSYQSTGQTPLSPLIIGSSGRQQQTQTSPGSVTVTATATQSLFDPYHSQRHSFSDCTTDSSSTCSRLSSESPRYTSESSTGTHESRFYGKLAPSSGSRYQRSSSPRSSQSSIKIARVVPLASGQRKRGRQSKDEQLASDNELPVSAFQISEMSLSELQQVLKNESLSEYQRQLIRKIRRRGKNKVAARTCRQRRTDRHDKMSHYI

[1] = HEp-2 cell cytotoxicity, dose response, cytotoxicity control for RSV inhibitor project, HTS (AID 2410); assay type: functional; settings: human respiratory syncytial virus
[2] = biological target: Induced myeloid leukemia cell differentiation protein Mcl-1 (Homo sapiens, UniProt Q07820); assay type: functional
Induced myeloid leukemia cell differentiation protein Mcl-1, sequence (Q07820 whole entry): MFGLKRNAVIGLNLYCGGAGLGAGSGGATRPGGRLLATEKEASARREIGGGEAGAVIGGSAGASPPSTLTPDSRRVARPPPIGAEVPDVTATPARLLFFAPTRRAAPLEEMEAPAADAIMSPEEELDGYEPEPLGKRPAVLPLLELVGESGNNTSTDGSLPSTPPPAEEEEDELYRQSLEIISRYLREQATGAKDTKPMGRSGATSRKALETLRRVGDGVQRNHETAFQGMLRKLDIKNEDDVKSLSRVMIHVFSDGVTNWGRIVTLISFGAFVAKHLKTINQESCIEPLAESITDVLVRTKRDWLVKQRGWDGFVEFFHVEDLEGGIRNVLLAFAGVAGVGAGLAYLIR

[3] = biological target: T2, Mannose-6-phosphate isomerase (Homo sapiens, UniProt P34949); assay: human PMI inhibitors, high substrate, primary screen, biochemical, fluorescence intensity, high mannose 6-phosphate (AID 1220)
T2 sequence (P34949 whole entry): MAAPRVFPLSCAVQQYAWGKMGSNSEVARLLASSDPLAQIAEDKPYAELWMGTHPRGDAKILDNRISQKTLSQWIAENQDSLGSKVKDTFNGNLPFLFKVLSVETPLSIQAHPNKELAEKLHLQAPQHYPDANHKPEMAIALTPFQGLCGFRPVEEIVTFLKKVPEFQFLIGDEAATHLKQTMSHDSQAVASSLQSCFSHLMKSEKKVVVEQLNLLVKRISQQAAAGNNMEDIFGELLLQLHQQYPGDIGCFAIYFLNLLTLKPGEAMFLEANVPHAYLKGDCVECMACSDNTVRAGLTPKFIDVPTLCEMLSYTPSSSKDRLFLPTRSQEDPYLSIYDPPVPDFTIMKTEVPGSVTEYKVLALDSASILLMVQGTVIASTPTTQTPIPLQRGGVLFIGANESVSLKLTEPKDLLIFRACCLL

[4] = microbe, parasite or virus in culture; assay type: functional; settings: Mycobacterium tuberculosis
[5] = test system: Streptococcus sp. 'group A'; assay: growth inhibition of control SK(-) GAS strain, dose response, counter-screen for streptokinase expression inhibitor project, luminescence, kanamycin, BacTiterGlo, confirmation (AID 1900); assay type: functional, organism-based
Streptococcus = assay: Group A Streptococcus viability loss, dose response, counter-screen for streptokinase expression inhibitor project, luminescence, BacTiterGlo (AID 1915); assay type: functional, organism-based;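 further: potency for reduction of bacterial viability or growth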
[6] = growth suppression of beta-catenin-knockout colon cells, dose response, cell-based, HCT116, human colon tumor (AID 1045); assay type: functional;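 further: HCT116 colon tumor cells with beta catenin knocked out; cells exposed to compound for 60 hours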
[7] = growth suppression of PTEN-null colon cells, dose response, cell-based, HCT116 PTEN knockout (AID 1047); assay type: functional;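 further: HCT116 colon tumor cells with PTEN knocked out; cells exposed to compound for 60 hours before readout; potency for loss of cell viability measured by luminescence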
Streptokinase A = biological target: T3, Streptokinase A (Streptococcus pyogenes serotype M1, UniProt P10520); assay: S. pyogenes streptokinase expression inhibitors, potency, dose response, plasminogen activation absorbance, OD405 (AID 1914); assay type: functional, Streptococcus pyogenes M1 GAS;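 further: secreted streptokinase activity via plasminogen activation per viability signal from cell pellet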
T3 sequence (P10520 whole entry): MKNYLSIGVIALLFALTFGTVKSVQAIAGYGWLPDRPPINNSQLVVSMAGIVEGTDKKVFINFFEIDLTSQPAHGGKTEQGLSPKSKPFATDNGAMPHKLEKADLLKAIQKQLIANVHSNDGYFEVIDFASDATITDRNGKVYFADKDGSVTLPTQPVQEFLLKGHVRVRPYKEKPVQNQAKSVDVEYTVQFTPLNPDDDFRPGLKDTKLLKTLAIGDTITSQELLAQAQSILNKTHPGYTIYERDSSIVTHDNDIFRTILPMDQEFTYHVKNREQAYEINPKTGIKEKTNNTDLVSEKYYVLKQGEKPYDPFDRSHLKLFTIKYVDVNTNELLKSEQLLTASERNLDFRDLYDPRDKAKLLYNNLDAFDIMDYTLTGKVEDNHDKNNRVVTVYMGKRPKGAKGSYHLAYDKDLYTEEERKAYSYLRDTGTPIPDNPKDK

[8] = biological target: DNA dC->dU-editing enzyme APOBEC-3A (Homo sapiens, UniProt P31941); assay: Dose Response confirmation of small molecule APOBEC3A DNA Deaminase Inhibitors via a fluorescence-based single-stranded DNA deaminase assay. [Related pubchem assays (depositor defined):AID493011, AID493024]; assay type: functional
DNA dC->dU-editing enzyme APOBEC-3A, sequence (P31941 whole entry): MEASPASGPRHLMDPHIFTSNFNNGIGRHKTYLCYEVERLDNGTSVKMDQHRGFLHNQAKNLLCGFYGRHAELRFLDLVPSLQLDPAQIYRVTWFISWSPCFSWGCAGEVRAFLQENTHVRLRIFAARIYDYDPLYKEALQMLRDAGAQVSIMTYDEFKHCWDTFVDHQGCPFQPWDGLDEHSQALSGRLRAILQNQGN

[9] = biological target: DNA dC->dU-editing enzyme APOBEC-3G (Homo sapiens, UniProt Q9HC16); assay type: functional;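 further: Dose-response counterscreen measuring inhibition of APOBEC3G DNA deaminase activity, run while confirming APOBEC3A inhibitors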
DNA dC->dU-editing enzyme APOBEC-3G, sequence (Q9HC16 whole entry): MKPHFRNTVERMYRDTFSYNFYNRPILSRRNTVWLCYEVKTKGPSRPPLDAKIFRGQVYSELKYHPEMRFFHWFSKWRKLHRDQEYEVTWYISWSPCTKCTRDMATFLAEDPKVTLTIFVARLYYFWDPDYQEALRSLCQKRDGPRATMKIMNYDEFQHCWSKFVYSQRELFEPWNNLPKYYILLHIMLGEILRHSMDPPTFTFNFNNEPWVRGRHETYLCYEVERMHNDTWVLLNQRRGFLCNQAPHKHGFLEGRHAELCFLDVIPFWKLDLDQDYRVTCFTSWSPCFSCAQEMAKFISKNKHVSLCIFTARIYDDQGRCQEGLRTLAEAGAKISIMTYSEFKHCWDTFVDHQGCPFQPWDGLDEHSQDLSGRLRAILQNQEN

[10] = biological target: T4, Rac GTPase-activating protein 1 (Homo sapiens, UniProt Q9H0H5); assay: MgcRacGAP GTPase-activating activity inhibitors, confirmation, biochemical, ADP Hunter fluorescence, primary and confirmatory (AID 624330); assay type: functional
T4 sequence (Q9H0H5 whole entry): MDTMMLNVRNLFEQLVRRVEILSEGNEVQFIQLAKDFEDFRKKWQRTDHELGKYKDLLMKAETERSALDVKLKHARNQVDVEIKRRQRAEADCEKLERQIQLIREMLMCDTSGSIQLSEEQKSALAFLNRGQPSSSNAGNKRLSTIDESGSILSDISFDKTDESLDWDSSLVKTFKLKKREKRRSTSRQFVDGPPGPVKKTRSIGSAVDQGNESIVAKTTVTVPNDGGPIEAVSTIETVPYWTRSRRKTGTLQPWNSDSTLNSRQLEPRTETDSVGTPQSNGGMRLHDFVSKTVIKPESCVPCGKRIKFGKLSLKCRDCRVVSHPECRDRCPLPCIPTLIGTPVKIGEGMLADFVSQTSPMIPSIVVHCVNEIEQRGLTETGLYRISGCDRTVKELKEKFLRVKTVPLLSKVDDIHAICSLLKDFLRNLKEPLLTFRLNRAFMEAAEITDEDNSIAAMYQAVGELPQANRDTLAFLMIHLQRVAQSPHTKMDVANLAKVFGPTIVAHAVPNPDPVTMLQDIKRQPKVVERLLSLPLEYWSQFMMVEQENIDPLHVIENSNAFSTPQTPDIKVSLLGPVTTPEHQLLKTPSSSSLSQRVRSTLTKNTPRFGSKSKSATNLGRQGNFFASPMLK

[11] = biological target: T5, Histone-lysine N-methyltransferase NSD2 (Homo sapiens, UniProt O96028); assay type: biochemical
T5 sequence (O96028 whole entry): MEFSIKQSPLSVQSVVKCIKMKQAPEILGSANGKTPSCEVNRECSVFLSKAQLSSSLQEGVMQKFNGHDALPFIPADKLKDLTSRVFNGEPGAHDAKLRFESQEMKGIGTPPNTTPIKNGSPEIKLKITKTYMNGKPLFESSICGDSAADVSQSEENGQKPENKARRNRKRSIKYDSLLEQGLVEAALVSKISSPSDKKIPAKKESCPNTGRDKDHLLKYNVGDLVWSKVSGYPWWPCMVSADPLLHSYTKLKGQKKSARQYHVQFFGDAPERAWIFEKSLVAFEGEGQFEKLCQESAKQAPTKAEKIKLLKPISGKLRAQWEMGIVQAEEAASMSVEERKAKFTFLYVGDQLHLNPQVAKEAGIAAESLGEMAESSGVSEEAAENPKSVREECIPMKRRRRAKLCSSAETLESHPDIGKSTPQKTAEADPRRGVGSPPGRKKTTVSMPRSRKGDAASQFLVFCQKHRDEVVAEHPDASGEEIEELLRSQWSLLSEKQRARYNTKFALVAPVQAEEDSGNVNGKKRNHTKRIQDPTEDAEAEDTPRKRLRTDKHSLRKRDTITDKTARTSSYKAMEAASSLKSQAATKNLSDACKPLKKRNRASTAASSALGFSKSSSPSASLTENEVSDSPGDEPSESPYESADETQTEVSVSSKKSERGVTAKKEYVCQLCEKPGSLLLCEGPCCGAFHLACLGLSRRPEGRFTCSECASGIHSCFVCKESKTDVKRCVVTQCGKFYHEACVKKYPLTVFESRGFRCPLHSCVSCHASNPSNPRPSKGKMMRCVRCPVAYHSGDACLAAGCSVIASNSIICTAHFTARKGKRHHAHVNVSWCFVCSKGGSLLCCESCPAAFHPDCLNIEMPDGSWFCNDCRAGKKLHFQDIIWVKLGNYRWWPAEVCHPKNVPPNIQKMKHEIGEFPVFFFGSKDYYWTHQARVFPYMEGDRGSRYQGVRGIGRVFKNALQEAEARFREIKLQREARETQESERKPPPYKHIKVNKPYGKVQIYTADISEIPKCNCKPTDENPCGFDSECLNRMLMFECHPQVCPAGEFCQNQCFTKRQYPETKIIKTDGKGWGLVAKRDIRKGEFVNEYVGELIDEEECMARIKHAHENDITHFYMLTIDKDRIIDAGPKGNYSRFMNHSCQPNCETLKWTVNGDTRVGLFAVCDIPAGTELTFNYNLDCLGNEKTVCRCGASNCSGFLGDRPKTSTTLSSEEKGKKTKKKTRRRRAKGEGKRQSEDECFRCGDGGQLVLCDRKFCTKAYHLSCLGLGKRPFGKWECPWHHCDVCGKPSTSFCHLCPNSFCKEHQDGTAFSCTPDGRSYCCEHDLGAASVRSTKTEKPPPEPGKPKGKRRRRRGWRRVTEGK

Nonstructural protein 1 = Nonstructural protein 1 (Influenza A virus, UniProt Q194T2); assay type: functional, Influenza A virus (A/California/07/2009(H1N1))
Nonstructural protein 1, sequence (Q194T2 whole entry): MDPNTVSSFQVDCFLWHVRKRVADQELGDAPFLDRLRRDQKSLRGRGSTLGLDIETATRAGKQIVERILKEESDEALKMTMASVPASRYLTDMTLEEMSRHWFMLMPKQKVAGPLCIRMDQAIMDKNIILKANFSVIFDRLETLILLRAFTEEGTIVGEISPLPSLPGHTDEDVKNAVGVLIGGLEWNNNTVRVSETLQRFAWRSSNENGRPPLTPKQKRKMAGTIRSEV

Large T antigen, sequence (P03070 whole entry): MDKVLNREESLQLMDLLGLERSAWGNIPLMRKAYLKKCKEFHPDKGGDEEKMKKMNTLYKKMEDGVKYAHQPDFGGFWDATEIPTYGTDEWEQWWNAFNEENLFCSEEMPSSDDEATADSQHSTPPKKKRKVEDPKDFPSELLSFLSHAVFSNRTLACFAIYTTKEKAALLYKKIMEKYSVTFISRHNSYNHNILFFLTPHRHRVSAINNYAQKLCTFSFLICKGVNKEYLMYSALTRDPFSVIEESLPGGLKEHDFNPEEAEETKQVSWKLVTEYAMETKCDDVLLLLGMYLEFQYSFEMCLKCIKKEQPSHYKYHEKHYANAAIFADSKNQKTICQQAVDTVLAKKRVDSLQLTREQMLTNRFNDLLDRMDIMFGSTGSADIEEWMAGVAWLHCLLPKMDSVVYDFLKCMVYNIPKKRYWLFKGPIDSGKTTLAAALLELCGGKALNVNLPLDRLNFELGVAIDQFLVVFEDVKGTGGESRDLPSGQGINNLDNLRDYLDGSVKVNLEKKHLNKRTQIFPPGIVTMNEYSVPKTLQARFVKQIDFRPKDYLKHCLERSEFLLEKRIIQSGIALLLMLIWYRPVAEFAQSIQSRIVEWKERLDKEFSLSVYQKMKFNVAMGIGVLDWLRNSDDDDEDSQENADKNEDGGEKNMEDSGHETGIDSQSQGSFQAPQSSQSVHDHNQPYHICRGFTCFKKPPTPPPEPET

## CCOc1ccc(/C=N/n2nnnc2N)cc1O
Large T antigen
  IC50: 9.64 µM (active)

## O=C1N[C@H](Cc2ccccc2)COC(=O)[C@@H](Cc2ccc(F)cc2)C/C=C\C[C@H]1CC(=O)N(CCO)Cc1ccccc1
H9c2
  IC50: > 79 µM (inactive)

## Cc1c(OC(=O)CNC(=O)OC(C)(C)C)ccc2c3c(c(=O)oc12)CCC3
Protein skinhead-1
  IC50: > 100 µM (inactive)
[1]
  CC50: 36.9 µM (active)

## Nc1cc2nc[nH]c2cc1N
[2]
  IC50: > 54 µM (not active)
[3]
  IC50: > 50 µM (not active)

## Clc1ccc(OCc2nc(-c3ccncc3)no2)c(Br)c1
Protein skinhead-1
  IC50: 31.6 µM (active)

## COc1ccc(/C=C2\SC(=O)N(CC(=O)Nc3ccccc3O)C2=O)cc1OC
Protein skinhead-1
  IC50: > 100 µM (inactive)

## COc1ccc(NC(=O)CSC2=C(C#N)C(c3ccco3)C(C(=O)Nc3nc4ccccc4s3)=C(C)N2)cc1 (stereo not drawn)
[4]
  CC50: > 40 µM (active)

## CCOC(=O)c1ccc(NC(=O)c2[nH]cnc2C(=O)NCCCCCNC(=O)OC(C)(C)C)cc1
[5]
  EC50: 3.49 µM (active)
H9c2
  IC50: > 79 µM (inactive)
Streptococcus
  EC50: 5.74 µM (active)

## Cc1cncn1CCc1nc2c3ccccc3nc(SCC(=O)Nc3cccc(Cl)c3)n2n1
[4]
  CC50: 14.3 µM (active)
[6]
  EC50: 10.7 µM (active)
[7]
  EC50: 13.3 µM (active)

## COc1ccc(N2CCN(C(=O)c3ccc(CSc4ccccc4)cc3)CC2)cc1
[2]
  IC50: 4.83 µM (not active)

## CC(=O)O[C@H]1C[C@@]2(C)[C@@H](C[C@@H](O)[C@H]3[C@@]4(C)CC[C@@H](O)[C@@H](C)[C@@H]4CC[C@@]32C)/C1=C(\CCC=C(C)C)C(=O)O
Large T antigen
  IC50: 20.4 µM (active)
Streptokinase A
  EC50: 0.362 µM (active)
[5]
  EC50: 0.161 µM (active)
Streptococcus
  EC50: 0.947 µM (active)

## Cc1cccc(C(=O)N[C@H](C(=O)OCc2cc(=O)n3c(n2)sc2ccccc23)C(C)C)c1
[8]
  IC50: 14.7 µM (active)
Streptokinase A
  EC50: > 150 µM (not active)
[5]
  EC50: 26.2 µM (active)
[9]
  IC50: 24.5 µM (active)
Streptococcus
  EC50: 40.5 µM (active)

## CC(C)c1ccc(N(CC(=O)Nc2ccc(S(=O)(=O)N3CCOCC3)cc2)S(C)(=O)=O)cc1
Protein skinhead-1
  IC50: > 100 µM (inactive)

## CC(C)(C)c1cc(C(=O)N/N=C/c2ccc(O)cc2)n(-c2ccccc2)n1
Large T antigen
  IC50: 46.2 µM (active)
[10]
  IC50: 122 µM (active)

## Oc1ccc(/C=N/Nc2ccc(C(F)(F)F)cn2)cc1O
Large T antigen
  IC50: 48.3 µM (active)

## CN(C(=O)CSCC(=O)Nc1ccc(Cl)cc1)C1CCCCC1
Protein skinhead-1
  IC50: > 100 µM (inactive)

## O=C(CCc1nc(O)c2ccccc2n1)OCC(=O)N1CCc2ccccc21
H9c2
  IC50: > 79 µM (inactive)

## CSc1nc(Cl)c(Br)c(N2CC2)n1
H9c2
  IC50: > 79 µM (inactive)

## CN(C)c1cccc2c1C(=O)c1ccccc1C2=O
[11]
  AC50: 5.57 µM (active)
Nonstructural protein 1
  IC50: 10.1 µM (active)

## Cc1cccc(C(=O)NC(C(=O)Nc2nc(-c3ccccn3)cs2)C(C)C)c1 (stereo not drawn)
Streptokinase A
  EC50: > 150 µM (not active)
[5]
  EC50: 6.29 µM (active)
H9c2
  IC50: 8.6 µM (active)
Streptococcus
  EC50: 17.1 µM (active)
